Reference: PMC12721191, “Oxidative hypoxia drives TGF-β1–induced fibrosis under normoxia” (Redox Biology, 2025)

Key:
CYP2C19 = biological target: T1, CYP2C19 (Homo sapiens, UniProt P33261); test: Cytochrome P450 inhibition assay in HLMs; type: in vitro ADME; conditions: pooled human liver microsomes, probe S-mephenytoin (4-hydroxylation), up to 50 μM
T1 construct: tissue Xenotech H0630; host or cells: pooled human liver microsomes
Description: (§1) All experiments were performed in triplicate. Phenacetin O-deethylase, coumarin hydroxylase, bupropion hydroxylase, amodiaquine N-deethylase, tolbutamide 4-hydroxylase, S-mephenytoin hydroxylase, dextromethorphan O-demethylase, chlorozoxazone 6-hydroxylase, and midazolam 1’-hydroxylase activities were determined as probe activities for CYP1A2, CYP2A6, CYP2B6, CYP2C8, CYP2C9, CYP2C19, CYP2D6, CYP2E1, and CYP3A, respectively, using cocktail incubation and tandem mass spectrometry, as described previously^2,3.

CYP2A6 = biological target: T2, CYP2A6 (Homo sapiens, UniProt P11509); test: Cytochrome P450 inhibition assay in HLMs; type: in vitro ADME; conditions: Coumarin 7-hydroxylation, pooled HLMs, up to 50 μM
T2 construct: tissue Xenotech H0630; host or cells: pooled human liver microsomes
T2 sequence (P11509 1-494): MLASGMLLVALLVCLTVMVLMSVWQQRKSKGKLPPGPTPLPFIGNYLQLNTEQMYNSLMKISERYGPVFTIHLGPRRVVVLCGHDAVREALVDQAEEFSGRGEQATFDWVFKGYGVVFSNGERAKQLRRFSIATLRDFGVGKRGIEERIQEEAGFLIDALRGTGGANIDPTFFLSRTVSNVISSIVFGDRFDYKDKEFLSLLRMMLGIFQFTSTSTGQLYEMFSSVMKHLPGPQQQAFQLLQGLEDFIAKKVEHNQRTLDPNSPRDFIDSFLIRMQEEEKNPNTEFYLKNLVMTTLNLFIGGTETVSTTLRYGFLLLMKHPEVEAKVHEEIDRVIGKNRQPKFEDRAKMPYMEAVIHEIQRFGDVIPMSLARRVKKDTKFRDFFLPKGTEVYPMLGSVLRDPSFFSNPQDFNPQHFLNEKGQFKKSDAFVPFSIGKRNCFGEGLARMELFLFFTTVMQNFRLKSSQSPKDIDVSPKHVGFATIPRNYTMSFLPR
Description: as §1, with “Cytochrome P450 Inhibition Assay: […] All” for “All”

CYP2B6 = biological target: T3, CYP2B6 (Homo sapiens, UniProt P20813); test: Cytochrome P450 inhibition assay in HLMs; type: in vitro ADME; conditions: Bupropion hydroxylation, pooled HLMs, up to 50 μM
T3 construct: tissue Xenotech H0630; host or cells: pooled human liver microsomes
T3 sequence (P20813 1-491): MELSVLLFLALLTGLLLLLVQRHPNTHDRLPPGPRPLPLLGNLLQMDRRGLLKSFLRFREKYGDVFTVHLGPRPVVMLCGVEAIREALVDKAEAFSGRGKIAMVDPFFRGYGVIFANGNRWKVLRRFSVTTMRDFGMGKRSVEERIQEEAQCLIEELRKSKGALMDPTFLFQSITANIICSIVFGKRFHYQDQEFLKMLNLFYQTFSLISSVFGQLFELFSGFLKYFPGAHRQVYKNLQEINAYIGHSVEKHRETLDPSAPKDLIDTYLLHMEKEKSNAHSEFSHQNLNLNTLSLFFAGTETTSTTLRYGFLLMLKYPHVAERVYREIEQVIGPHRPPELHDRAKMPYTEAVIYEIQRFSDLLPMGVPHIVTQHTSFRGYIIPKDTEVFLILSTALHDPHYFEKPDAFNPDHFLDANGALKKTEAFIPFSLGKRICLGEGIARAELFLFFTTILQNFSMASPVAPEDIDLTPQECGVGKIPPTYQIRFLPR
Description: as §1, with “Cytochrome P450 Inhibition Assay: […] All” for “All”

HIF-1α–EGFP in A549 = test: pg-HIF-1α–EGFP fluorescence in transfected A549; type: cell-based, human; conditions: A549, co-treatment with TGF-β1
Description: pg-HIF-1α–EGFP was introduced via jetOPTIMUS®; GFP fluorescence was quantified 48 h post-transfection.
Transient transfection of A549 cells with pg-HIF-1α–EGFP was performed using jetOPTIMUS® according to the manufacturer’s protocol. Following 48 hr of transfection, the medium was replaced, and cells were treated with TGF-β1 at the specified concentration and duration before further analysis. Cell imaging was performed using an EVOS™ M7000 at 10×, 20×, or 40× magnification. GFP fluorescence intensity was measured using ImageJ. The mean fluorescence within the regions of interest (ROIs) was calculated after background subtraction, and values were normalized to the control condition

A549 = test: Intracellular ROS staining (DHR123 microscopy, CM-H2DCFDA flow cytometry); type: cell-based, human
Description: CellROX™ Deep Red or DHR123 fluorescence microscopy, and CM-H2DCFDA flow cytometry, were used to quantify intracellular ROS.
Dihydrorhodamine (DHR)123: Cells were similarly seeded at 3 × 10⁴ cells per well in 1 mL of medium on Cell Culture Slide I. After the desired treatments and incubation times, the medium was removed, cells were washed with PBS, and 10 µM Dihydrorhodamine 123 in PBS was applied for 30 min at 37 °C. Hoechst 33342 (0.5 µg/mL) was added for the final 10 min. Cells were then washed in PBS and imaged with the EVOS™ M7000 system in the Cy2 channel.
CM-H₂DCFDA: Cells (2 × 10⁵) were plated in 2 mL of medium per well in a 6-well plate. After treatment for the indicated times, the medium was removed, and cells were washed once with PBS. CM-H₂DCFDA (10 µM) in PBS was added for 30 min at 37 °C, followed by a 10 min equilibration in PBS. Cells were then detached with trypsin for 1 min, neutralized with FBS, pelleted by centrifugation, and resuspended in PBS. Fluorescence was measured using a CytoFLEX LX flow cytometer (excitation/emission: 485/520 nm).

MRC-5 = test: Western blot of fibrosis markers in MRC-5; type: cell-based, human; conditions: MRC-5, TGF-β1 and ACF-2 co-treatment
Description: RIPA lysates (BCA-normalized) were resolved by SDS-PAGE, transferred to nitrocellulose, and probed with the antibodies listed in Appendix S2. Protocols & Materials.
Cells were lysed in RIPA buffer supplemented with a Protease Inhibitor Cocktail. Protein concentrations were determined using the SMART™ BCA Protein Assay Kit. Equal amounts of protein were separated by SDS-PAGE and transferred onto nitrocellulose membranes. Membranes were blocked with 5% skim milk in TBST and incubated overnight at 4 °C with the primary antibodies indicated below. Membranes were then washed and incubated for 1 hr at room temperature with the appropriate secondary antibodies. Protein bands were visualized using the Davinch Western Imaging system according to the manufacturer’s instructions. Band intensities were quantified using ImageJ software after background subtraction. The signal intensity of each target protein was normalized to the corresponding GAPDH band, and values were further normalized to the control group (set to 1 for each independent experiment).

T1 sequence (P33261 whole entry): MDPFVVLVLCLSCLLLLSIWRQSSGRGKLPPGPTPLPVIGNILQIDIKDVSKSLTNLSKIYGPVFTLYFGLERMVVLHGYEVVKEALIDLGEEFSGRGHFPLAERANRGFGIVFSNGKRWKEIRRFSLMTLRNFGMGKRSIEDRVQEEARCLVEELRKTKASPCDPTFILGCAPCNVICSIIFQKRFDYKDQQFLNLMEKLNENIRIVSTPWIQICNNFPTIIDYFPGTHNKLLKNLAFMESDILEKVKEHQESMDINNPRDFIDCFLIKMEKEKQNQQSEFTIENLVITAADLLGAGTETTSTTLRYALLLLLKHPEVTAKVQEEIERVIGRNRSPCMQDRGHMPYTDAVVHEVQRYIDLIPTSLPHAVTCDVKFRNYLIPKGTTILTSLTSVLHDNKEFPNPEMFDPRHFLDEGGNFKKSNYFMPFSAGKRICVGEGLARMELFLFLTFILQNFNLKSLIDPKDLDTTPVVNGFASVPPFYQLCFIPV

IC50 (CYP2C19): 8.05 µM | IC50 (CYP2A6): > 50 µM | IC50 (CYP2B6): > 50 µM
SMILES: COc1ccc(-c2c(-c3ccc(O)c(OC)c3)oc3cc(OC)c(OC)cc3c2=O)cc1 [ACF-2]
TGF-β1–induced HIF-1α–EGFP GFP fluorescence intensity (HIF-1α–EGFP in A549): significantly attenuated the TGF-β1–induced increase in GFP fluorescence intensity | TGF-β1-induced ROS (DCFDA flow cytometry) (A549; A549, ACF-2 7 μM, TGF-β1 6 h): effectively suppressed TGF-β1-induced ROS elevation | TGF-β1-induced ROS (DHR123) (A549; A549, TGF-β1 6 h, NAC 10 mM as comparator): reduced TGF-β1-induced ROS accumulation even more effectively than NAC | Fibronectin, COL4A6, α-SMA (Western blot) (MRC-5): same dose-dependent antifibrotic response
